Data reported in patent publication US10125358B2, “Methods and compounds for increasing threonyl-tRNA synthetase activity” (UNIVERSITY OF VERMONT AND STATE AGRICULTURAL COLLEGE, priority 2012, dated 2018).

Test system: HUVECs
Test: Western blot for unfolded protein response (phospho-eIF2α) and apoptosis (cleaved caspase-3)
Format: cell-based, human
Settings: HUVECs in full serum media
Method: After treatments, cells were harvested into sample buffer containing: 0.2 M Tris-HCL, 4% SDS, 4% β-mercaptoethanol, 40% glycerol, 4 μM pyronin Y. Extracts were sheared through a 24-gauge syringe. Samples were separated by 10% SDS-PAGE and transferred to nitrocellulose membrane and probed with specific antibody as described (Lounsbury, Beddow et al. 1994). Primary antibodies are as follows: Rabbit monoclonal anti-P-eIF2α (1:1000; Cell Signaling Technology, Danvers, Mass.), rabbit monoclonal anti-Cleaved Caspase-3 (1:1000; Cell Signaling Technology, Danvers, Mass.), rabbit polyclonal anti-TARS (1:500; Santa Cruz Biotechnology, Santa Cruz, Calif.). Loading control antibodies were rabbit monoclonal anti-β-actin and anti-β-tubulin (1:1000; Cell Signaling Technology, Danvers, Mass.). Secondary antibodies were HRP-goat-anti-mouse and HRP-goat-anti-rabbit (1:5,000; Jackson Laboratories, Bar Harbor, Me.).

With `C[C@@H]1C[C@H](C)C[C@H](C)[C@@H](O)CC(=O)O[C@H]([C@@H]2CC[C@H]2C(=O)O)C/C=C/C=C(/C#N)[C@H](O)[C@@H](C)C1` [BC194] the “stimulation of unfolded protein response (phospho-eIF2α) and apoptosis (cleaved caspase-3)” value was “high concentrations of BC194 are required”.
